For eight molecules, IC50 and inhibition results are on record in patent US20020115727A1, “Synthesis, methods of using, and compositions of hydroxylated cyclobutylalkylamines” (priority 2000, published 2002).

Where two headings read alike, the source gives them in different places.

Assay [1] addresses T1, functional uptake of serotonin (5-HT) into synaptosomes prepared from rat whole brain (Rattus norvegicus, UniProt P31652).
T1 construct: into synaptosomes prepared from rat whole brain, hypothalamus, or corpora striata, respectively; from tissue; host or cells: rat whole brain synaptosomes
The experiment in a line: Functional uptake of serotonin (5-HT) into synaptosomes. It is filed as biochemical. The settings on record: for IC50: rat whole brain synaptosomes, 10 concentrations in duplicate; for inhibition at 10 µM: read-out: inhibition of 5-HT uptake (no IC50 determined). The method, then:
(§1) The 1-OH metabolites of N-didesmethylsibutramine (1-OH-DDMS) were tested to determine thir ability to functional uptake of serotonin (5-HT), norepinephrine (NE), or dopamine (DA), into synaptosomes prepared from rat whole brain, hypothalamus, or corpora striata, respectively. In addition, binding was determined at the nonselective muscarinic receptor and the β3-receptor from rat cerebral cortex and rat adipose tissue, respectively. The 1-OH-DDMS compounds tested contain two chiral centers (C2, C4): (2R,4R) (2S,4R), (2R,4S), and (2S,4S).
(§2) The 1-OH metabolites of N-desmethylsibutramine (DMS) were also tested to determine their ability to inhibit functional uptake of serotonin (5-HT), norepinephrine (NE), or dopamine (DA), into synaptosomes prepared from rat whole brain, hypothalamus, or corpora striata, respectively. In addition, binding was determined at the nonselective muscarinic receptor and the β3-receptor from rat cerebral cortex and rat adipose tissue, respectively. The 1-OH-DMS compounds tested contained two chiral centers (C2, C4): (2R,4R), (2S,4S), (2R,4S), and (2S,4R).

The target of assay [2] is T2, functional uptake of dopamine (DA) into synaptosomes prepared from rat corpora striata (Rattus norvegicus, UniProt P23977).
T2 construct: into synaptosomes prepared from rat whole brain, hypothalamus, or corpora striata, respectively; from tissue; host or cells: rat corpora striata synaptosomes
T2 sequence (P23977 whole entry): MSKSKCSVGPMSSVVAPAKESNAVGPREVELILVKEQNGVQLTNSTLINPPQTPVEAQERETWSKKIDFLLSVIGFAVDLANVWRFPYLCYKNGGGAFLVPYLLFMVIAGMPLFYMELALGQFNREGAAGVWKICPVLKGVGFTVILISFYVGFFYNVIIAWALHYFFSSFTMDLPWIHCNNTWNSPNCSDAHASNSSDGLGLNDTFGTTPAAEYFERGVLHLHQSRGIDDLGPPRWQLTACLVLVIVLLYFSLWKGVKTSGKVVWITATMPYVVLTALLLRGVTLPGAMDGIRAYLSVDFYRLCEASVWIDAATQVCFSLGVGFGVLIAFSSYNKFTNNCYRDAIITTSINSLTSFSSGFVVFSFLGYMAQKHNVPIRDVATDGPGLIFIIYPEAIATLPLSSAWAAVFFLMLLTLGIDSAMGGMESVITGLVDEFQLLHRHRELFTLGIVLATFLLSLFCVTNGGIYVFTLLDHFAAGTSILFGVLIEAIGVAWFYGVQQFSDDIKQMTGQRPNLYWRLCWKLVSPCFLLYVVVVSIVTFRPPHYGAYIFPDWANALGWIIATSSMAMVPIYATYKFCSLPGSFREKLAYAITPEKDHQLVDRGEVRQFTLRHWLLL
In words: Functional uptake of dopamine (DA) into synaptosomes. It is filed as biochemical. Conditions: 10 concentrations in duplicate. The method, then:
as §1, §2

Assay [3] concerns the target T3, functional uptake of norepinephrine (NE) into synaptosomes prepared from rat hypothalamus (Rattus norvegicus, UniProt Q63380).
T3 construct: into synaptosomes prepared from rat whole brain, hypothalamus, or corpora striata, respectively; from tissue; host or cells: rat hypothalamus synaptosomes
In words: Functional uptake of norepinephrine (NE) into synaptosomes. The settings on record: 10 concentrations in duplicate. The class given is biochemical. The method, then: as §1, §2

Assay [4] deals with T4, β3-receptor from rat adipose tissue (Rattus norvegicus, UniProt P26255).
T4 construct: from tissue; host or cells: rat adipose tissue
T4 sequence (P26255 whole entry): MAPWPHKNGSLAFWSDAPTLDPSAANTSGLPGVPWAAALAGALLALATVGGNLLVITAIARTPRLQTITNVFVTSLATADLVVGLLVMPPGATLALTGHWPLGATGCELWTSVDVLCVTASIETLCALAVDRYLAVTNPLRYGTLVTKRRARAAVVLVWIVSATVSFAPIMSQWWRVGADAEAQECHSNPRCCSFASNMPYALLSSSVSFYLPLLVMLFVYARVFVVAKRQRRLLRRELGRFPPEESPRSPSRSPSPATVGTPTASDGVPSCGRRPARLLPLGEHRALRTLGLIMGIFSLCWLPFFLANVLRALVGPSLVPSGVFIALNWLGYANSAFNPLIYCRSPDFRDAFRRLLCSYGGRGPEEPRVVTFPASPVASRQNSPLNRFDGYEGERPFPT
The experiment in a line: Binding at the β3-receptor. The method, then:
Indeed, certain compounds have been tested. The 1-OH metabolites of N-didesmethylsibutramine (1-OH-DDMS) were tested to determine thir ability to functional uptake of serotonin (5-HT), norepinephrine (NE), or dopamine (DA), into synaptosomes prepared from rat whole brain, hypothalamus, or corpora striata, respectively. In addition, binding was determined at the nonselective muscarinic receptor and the β3-receptor from rat cerebral cortex and rat adipose tissue, respectively. The 1-OH-DDMS compounds tested contain two chiral centers (C2, C4): (2R,4R) (2S,4R), (2R,4S), and (2S,4S).
as §2

The mark [5] stands for this setting: read-out: IC50 Values (nM) for 1-OH Metabolites of DDMS in Functional Uptake Assays: 5-HT.
[6] abbreviates: read-out: IC50 Values (nM) for 1-OH Metabolites of DDMS in Functional Uptake Assays: DA.
Where [7] appears, read: read-out: IC50 Values (nM) for 1-OH Metabolites of DDMS in Functional Uptake Assays: NE.
Where [8] appears, read: read-out: IC50 Values (nM) for 1-OH Metabolites of DMS in Functional Uptake Assays: 5-HT.
Where [9] appears, read: read-out: IC50 Values (nM) for 1-OH Metabolites of DMS in Functional Uptake Assays: DA.
Where [10] appears, read: read-out: IC50 Values (nM) for 1-OH Metabolites of DMS in Functional Uptake Assays: NE.

T1 sequence (P31652 whole entry): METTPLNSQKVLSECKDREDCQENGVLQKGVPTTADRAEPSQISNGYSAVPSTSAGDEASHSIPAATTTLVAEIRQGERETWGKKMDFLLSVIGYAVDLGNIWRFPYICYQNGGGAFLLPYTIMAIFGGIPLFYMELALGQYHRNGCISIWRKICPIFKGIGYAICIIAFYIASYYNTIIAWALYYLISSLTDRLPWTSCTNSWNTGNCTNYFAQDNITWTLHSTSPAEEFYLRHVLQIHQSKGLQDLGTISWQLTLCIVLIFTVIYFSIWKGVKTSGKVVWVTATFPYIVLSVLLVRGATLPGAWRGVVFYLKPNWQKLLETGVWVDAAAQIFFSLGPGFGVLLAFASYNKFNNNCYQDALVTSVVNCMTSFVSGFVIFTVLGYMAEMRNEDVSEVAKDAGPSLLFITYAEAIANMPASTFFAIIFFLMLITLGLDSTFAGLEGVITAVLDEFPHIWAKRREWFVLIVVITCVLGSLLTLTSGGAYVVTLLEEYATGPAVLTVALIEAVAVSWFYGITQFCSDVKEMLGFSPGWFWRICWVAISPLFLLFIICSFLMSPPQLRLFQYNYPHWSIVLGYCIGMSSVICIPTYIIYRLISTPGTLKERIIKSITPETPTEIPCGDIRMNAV
T3 sequence (Q63380 1-617): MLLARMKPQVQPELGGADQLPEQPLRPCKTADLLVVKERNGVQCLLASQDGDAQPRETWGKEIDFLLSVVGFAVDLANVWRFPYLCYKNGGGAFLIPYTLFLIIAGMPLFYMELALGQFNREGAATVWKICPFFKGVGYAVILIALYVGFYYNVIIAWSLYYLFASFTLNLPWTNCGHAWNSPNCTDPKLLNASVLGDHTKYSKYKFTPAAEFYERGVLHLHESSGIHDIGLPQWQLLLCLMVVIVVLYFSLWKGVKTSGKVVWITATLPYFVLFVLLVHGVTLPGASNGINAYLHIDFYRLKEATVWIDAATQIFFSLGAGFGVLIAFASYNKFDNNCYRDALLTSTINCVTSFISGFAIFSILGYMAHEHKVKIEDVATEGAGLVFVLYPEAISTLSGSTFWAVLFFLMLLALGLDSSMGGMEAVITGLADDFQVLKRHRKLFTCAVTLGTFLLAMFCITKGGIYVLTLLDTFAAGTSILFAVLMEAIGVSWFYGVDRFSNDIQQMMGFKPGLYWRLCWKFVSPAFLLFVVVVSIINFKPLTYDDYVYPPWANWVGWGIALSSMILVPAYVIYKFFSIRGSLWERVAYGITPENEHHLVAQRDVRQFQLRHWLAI

Take `C[C@@H](CO)C[C@@H](N)C1(c2ccc(Cl)cc2)CCC1` [(2R,4R)-1-OH-DDMS, (2R, 4R)-4-Amino-4-[1-(4-chlorophenyl)cyclobutyl]-2-methyl-butan-1-ol]: the IC50 in assay [1] (setting [5]) was 34 nM; in assay [2] (setting [6]), 27 nM; in assay [3] (setting [7]) it was 4.7 nM.
On to `CN[C@H](C[C@@H](C)CO)C1(c2ccc(Cl)cc2)CCC1` [(2R,4R)-1-OH-DMS], for which the concentration for half-maximal inhibition (IC50) in assay [1] (setting [8]) amounted to 12 nM; in assay [2] (setting [9]) it was 19 nM; in assay [3] (setting [10]) it was 2.2 nM.
As to `C[C@@H](CO)C[C@H](N)C1(c2ccc(Cl)cc2)CCC1` [(2R,4S)-1-OH-DDMS, (2R, 4S)-4-Amino-4-[1-(4-chlorophenyl)cyclobutyl]-2-methyl-butan-1-ol], the half-maximal inhibitory concentration (IC50) in assay [1] (setting [5]) came out at 2000 nM; in assay [2] (setting [6]) it was 110 nM; in assay [3] (setting [7]) it was 71 nM.
Take `CN[C@@H](C[C@@H](C)CO)C1(c2ccc(Cl)cc2)CCC1` [(2R,4S)-1-OH-DMS, (2R, 4S)-4-Methylamino-4-[1-(4-chlorophenyl)cyclobutyl]-2-methyl-butan-1-ol]: the inhibition at 10 µM in assay [1] is under 50%. Further, the IC50 in assay [2] (setting [9]) was determined as 2500 nM; in assay [3] (setting [10]), 74 nM.
Take `C[C@H](CO)C[C@@H](N)C1(c2ccc(Cl)cc2)CCC1` [(2S,4R)-1-OH-DDMS, (2S,4R)-4-Amino-4-[1-(4-chlorophenyl)cyclobutyl]-2-methyl-butan-1-ol]: the IC50 amounted to 65 nM in assay [1] (setting [5]), 37 nM in assay [2] (setting [6]) and 11 nM in assay [3] (setting [7]).
Take `CN[C@H](C[C@H](C)CO)C1(c2ccc(Cl)cc2)CCC1` [(2S,4R)-1-OH-DMS, (2S, 4R)-4-Methylamino-4-[1-(4-chlorophenyl)cyclobutyl]-2-methyl-butan-1-ol]: the IC50 was 160 nM in assay [1] (setting [8]), 37 nM in assay [2] (setting [9]) and 9.3 nM in assay [3] (setting [10]). Besides, the inhibition at 10 µM in assay [4] (read-out: inhibition at the β3-receptor (1-OH-DMS compounds)) amounted to 24%.
In the case of `C[C@H](CO)C[C@H](N)C1(c2ccc(Cl)cc2)CCC1` [(2S,4S)-1-OH-DDMS, (2S, 4S)-4-Amino-4-[1-(4-chlorophenyl)cyclobutyl]-2-methyl-butan-1-ol], the IC50 was found to be 1200 nM in assay [1] (setting [5]), 33 nM in assay [2] (setting [6]) and 150 nM in assay [3] (setting [7]). Also, in assay [4] (read-out: inhibition at the β3-receptor (1-OH-DDMS compounds)), the inhibition at 10 µM amounted to 30%.
Regarding `CN[C@@H](C[C@H](C)CO)C1(c2ccc(Cl)cc2)CCC1` [(2S,4S)-1-OH-DMS, (2S, 4S)-4-Methylamino-4-[1-(4-chlorophenyl)cyclobutyl]-2-methyl-butan-1-ol], the inhibition at 10 µM in assay [1] was under 50%. The IC50 in assay [2] (setting [9]) came out at 430 nM; in assay [3] (setting [10]) it was 250 nM.
